{"source": "patent US20220354811A1", "about": "“METHODS AND COMPOSITIONS FOR MODULATING MACROPHAGES POLARIZATION” (INSERM (INSTITUT NATIONAL DE LA SANTÉ ET DE LA RECHERCHE …, priority 2019, published 2022)", "key": {"[1]": {"test_system": "CSF-1-derived human macrophages", "experiment": "IL-4-induced M2 polarization of CSF-1-derived macrophages (flow cytometry CD200R/CD206, CD200R/CD163)", "format": "cell-based", "method": "FIG. 6. […] Human monocytes were differentiated during 7 days with 100 ng/mL CSF-1. […] The results are expressed as MFI and represent the mean of 3 independent experiments performed in duplicate. **P<0.01 according to a paired student t test (B) Macrophage polarization was evaluated by 3-color flow cytometric analysis. The percentage indicates cells that express both CD206/CD200R or CD163/CD200R. The results represent the mean±SD of 3 independent experiments performed in duplicate. **P<0.01, ***P<0.001 according to a paired student t test. Human monocytes were differentiated during 5 days with 100 ng/mL CSF-1 and then polarized into M2-macrophages (IL-4) for 2 days. […] The results are expressed as percentage of CD200R/CD206 or CD200R/CD163 double positive cells and represent the mean±SD of 3 independent experiments performed in duplicate.\nTo analyze the macrophagic differentiation of monocytes, the cells were washed with ice-cold phosphate buffered saline (PBS, Life Technologies, 14190169), incubated at 4° C. for 10 min in PBS/bovine serum albumin (BSA 0.5%, Dutscher, 871002) with anti-CD16, anti-CD71 and anti-CD163 or isotype controls (Miltenyi and BD Biosciences, catalog numbers were 130-113-396, 130-097-628 and 551374). Finally, the cells were washed and fixed in 2% paraformaldehyde (EMS, 15710). To perform macrophage polarization, purified monocytes were plated at 0.3×10^6 per mL in RPMI 1640 medium with glutamax-I supplemented with 10% (vol/vol) fetal bovine serum plus CSF-1 for 5+2 days to differentiate into M0 macrophages. 20 ng/mL IL-4 (Miltenyi, 130-094-117) was added after 5 days of differentiation for two days to polarize into M2-macrophages. […] Fluorescence was measured with a MACSQuant® Analyzer (Miltenyi, Paris, France). […] Fluorescence was measured with a MACSQuant® Analyzer (Miltenyi, Paris, France). […] Fluorescence, that indicate the internalization of particles, was measured with a MACSQuant® Analyzers (Miltenyi, France). Trypan blue solution was used to quench the fluorescence from particles that were not internalized. […]"}, "[2]": {"test_system": "bleomycin-induced pulmonary fibrosis", "experiment": "Bleomycin-induced lung fibrosis in mice", "format": "in vivo", "conditions": "subcutaneous 18 μg/g body weight twice a day for three weeks; bleomycin-treated mice", "from_the_text": "FIG. 7. Pharmacologic and genetic inhibition of caspase-8 prevents bleomycin-induced pulmonary fibrosis. (A) Quantification of Sirius Red labeling intensity. […] Each dot or square is an individual mouse. *P<0.05 according to Mann-Whitney test. (B) Quantification of airspace number/mm2 of parenchymal tissue. Results expressed as fold change in treated compared to control mice as in B. *P<0.05 according to Mann-Whitney test. (C) Quantification of Sirius Red labeling intensity. Results expressed as fold change in treated compared to control mice, C8 KO+bleomycin compared to C8 KO as in B. *P<0.05 according to Mann-Whitney test. (D) Quantification of airspace number/mm2 of parenchymal tissue. Results are expressed as fold change in treated compared to untreated wild-type mice, as in panel E. *P<0.05 according to Mann-Whitney test. (E) Cytokines were measured in broncho-alveolar lavage fluid collected from bleomycin-treated wild-type (wt) and LysM-Cre/Caspase-8 flox/flox (C8 KO) mice treated with bleomycin. Results are expressed as fold-changes compared to untreated mice. *P<0.05, **P<0.01 according to Mann-Whitney test. […]\nProcedures were approved by our Institutional Ethical Committee (CEEA 26) and the French Ministry of Research (#9861). […] To quantify airspace number, tissue sections 4-μm stained with Sirius Red were scanned using a NanoZoomer-SQ (Hamamatsu Corporation, Japan). […]"}}}
{"smiles": "C[C@H](NC(=O)C(=O)Nc1ccccc1C(C)(C)C)C(=O)N[C@@H](CC(=O)O)C(=O)COc1c(F)c(F)cc(F)c1F", "note": "[Emricasan, (S)-3-((S)-2-(2-((2-(tert-Butyl)phenyl)amino)-2-oxoacetamido)propanamido)-4-oxo-5-(2,3,5,6-tetrafluorophenoxy)pentanoic acid]", "values": [{"measurement": "M1-like markers", "setting": "[1]; 5 days CSF-1 then IL-4 2 days", "result": "induced M1-like markers"}, {"measurement": "M2-like polarization of M0 macrophages induced by IL4", "setting": "[1]; 5 days CSF-1 then IL-4 2 days", "result": "dampened"}, {"measurement": "generation of CD200R+/CD206+ and CD200R+/CD163+ double-positive cells", "setting": "[1]; IL4-polarized macrophages, Emricasan added 16 h before IL-4", "result": "inhibited"}, {"measurement": "lung fibrosis intensity (Sirius Red staining intensity and air space)", "setting": "[2]", "result": "dramatically decreases"}]}
